Key:
[1] = system: HeLa cells; conditions: 24h co-incubation with C004
From the text: See Goodall, M. L. et al., Developmental Cell, vol. 37, 337-349 (2016).

[2] = system: HCC-PDX xenograft; test: HCC-PDX xenograft on Humanized NSG mice with TIL analysis (Example 11); type: in vivo; conditions: tumor infiltrating leukocytes
Protocol: Pembrolizumab 25 mg/mL (Keytruda®, Merck® KGa) was purchased from Merck®. Isotonic zinc sulfate gamma-polyglutamate solution was prepared at pH 7.0 using Tris buffer (1 mM), at elemental zinc concentration of 1 mg/mL and gamma-polyglutamate concentration of 10 mg/mL.
All manipulations and procedures with mice were approved by Agency for Science, Technology and Research (A*STAR) Institutional Animal Care and Use Committee (IACUC). The diet provided was irradiated TEKLAD GLOBAL 18% Protein Rodent Diet (2918). Mice were housed in a sterile environment and only accessed under a BSL2 hood. Mice were fed, given water and monitored daily for health, and cages were changed weekly. NSG mice were purchased from The Jackson Laboratory and bred in a specific pathogen free facility at the Biological Resource Centre (BRC) in A*STAR, Singapore. One to three days old NSG pups were irradiated with a 55 s exposure equaling 1.1 Gy and transplanted with 1×10^5 CD34+ human fetal liver cells by intra-hepatic injections. The mice were bled at 8 weeks post-transplantation to determine the fraction of human immune cell reconstitution. Reconstitution was calculated by [% hCD45+/(% hCD45++% mCD45+)]. […]
Tumor volume was measured in two dimensions (length and width) using calipers and the tumor volume was calculated using the formula: Tumor size=(length […])×½. […]

| Molecule | effect of inhibitor/agonist on C004-induced necrotic cytotoxicity (LDH release assay) [1] | TIL analysis, T cell involvement [2] |
| --- | --- | --- |
| N.S=C(S)N1CCCC1 [PDTC] | did not cause a shift in the IC50 necrotic cytotoxicity | – |
| Pembrolizumab | – | solely dependent on CD8+ T cells |

Source: US20210128609A1, “ONCOLOGY TREATMENTS USING ZINC AGENTS” (XYLONIX IP HOLDINGS PTE. LTD., priority 2018, published 2021)
